Experiments:
[1] = test system: immortalised human keratinocyte cells (HaCaT); test: Scratch repopulation and closure with HaCaT; assay type: cell-based; conditions: 48 hrs; 0.001, 0.01 and 0.1 μg/ml; p<0.01
[2] = test system: wounds following necrosis and sloughing of spontaneous tumours; test: Resolution of wounds after sloughing of spontaneous tumours treated by intratumoural injection, equine; assay type: in vivo; conditions: for Average days from tumour slough to wound closure: Equine
Method: (§1) Veterinary clinical data on speed of resolution of wounds that formed following necrosis and sloughing of spontaneous tumours that had been treated by intratumoural injection of Compound 1 (30% 1,2 propanediol formulation at either 0.5 or 1.0 mg/mL concentration) in twenty-four companion animals are summarised in Table 17.
(§2) Note that all wounds were managed as open wounds and no bandaging, dressings, lotions or concomitant medications were used in any of these cases.

[3] = test system: chronic, non-healing wounds; test: Veterinary clinical treatment of non-healing and difficult wounds, 10 pet animals (overall); assay type: in vivo, dogs, tree kangaroos, spectacled flying fox; conditions: eight completed cases; open wounds, no dressings
Method: Compound 1 has been used to treat to heal difficult wounds in 10 pet (i.e. privately owned and cared for) animals with the aim of improving second intention wound healing
Seven dogs (Canis lupus familiaris) and one tree kangaroo (Dendrolagus humholzii) with chronic, non-healing wounds that were unresponsive to current veterinary standards-of-care for these indications were treated with Compound 1 by independent veterinarians. A second tree kangaroo and a spectacled flying fox (Pteropus conspicillatus) with wounds unsuited for initial treatment with current standards-of-care were also treated with Compound 1. All cases were managed as open wounds without the use of dressings or other bandaging during the course of treatment with Compound 1 and the subsequent period of wound resolution. Unless stated in individual case studies, no concomitant medications were used over the course of treatments with Compound 1.
Case and treatment notes for each of these patients are summarised below. Note that the return presentation of these animals to the treating veterinarians was often irregular and wound healing outcomes may have occurred well before the return assessment visits.

[4] = test system: human peripheral blood monocytes; test: Differentiation of monocytes into macrophages; assay type: cell-based; conditions: 10-fold dilutions; 4 days; adherence and morphology
Method: To determine potential effects of Compound 1 and fifteen other epoxy-tigliane compounds in the array on monocyte differentiation, human peripheral blood mononuclear cells (PBMCs) were isolated by Ficoll-Paque sedimentation of heparinised blood from a human donor, and plated at 100,000 cells/well in RPMI-1640 10% FCS. Duplicate wells were treated with 10-fold dilutions of the compounds and incubated at 37° C. for 4 days. The wells were scored visually for cell attachment and morphology, then washed twice with PBS, stained with sulfurhodamine and the incorporate stain quantitated in an ELISA reader. The plates were then washed with water and stained with 1% crystal violet in methanol for photography and scoring of adherent cell morphology.

[5] = test system: wounds following necrosis and sloughing of spontaneous tumours; test: Resolution of wounds after sloughing of spontaneous tumours treated by intratumoural injection, feline; assay type: in vivo
Method: as §1, §2

[6] = test system: human neonatal fibroblasts; test: Scratch closure, human neonatal fibroblasts, Method 1; assay type: cell-based
Method: The ability of early. passage neonatal foreskin fibroblasts (NFF) cultured in RPMI 1640-10% foetal calf serum to migrate across a scratch wound made in a confluent monolayer following treatment with purified compounds or plant extracts was determined using one or more of the following three methods.
Cells were seeded in 16-mm diameter wells (24-well plates), allowed to become confluent and 2 scratches made in each well using a sterile plastic pipette tip. The medium was removed, the wells washed with phosphate-buffered saline pH 7.2 (PBS) to remove dislodged cells, fresh medium added followed by serial 10-fold dilutions of pure compound or plant extract (2 μL). Incubation was continued for 16 to 30 hr. The experiment was terminated when the scratch edges of untreated cultures had closed approximately 25% of the initial gap. The monolayers were washed with PBS, fixed with ethanol and stained with 0.05% crystal violet. Photomicrographs of each well (EVOS microscope) were printed and each scratch measured at 3 places to determine the mean width. Accelerated wound closure-was considered to be significant if the remaining gap was <40% of the gap of the untreated controls: […]

[7] = 5 to 10% tissue deficit across the original wound area
[8] = <5% tissue deficit across the original wound area
[9] = >10% tissue deficit across the original wound area
[10] = Hair covers <50% of original wound area
[11] = Hair covers >50% of original wound area
[12] = Hair covers >95% of original wound area
[13] = Localised scar covering <10% of original wound area
[14] = Scarring covering >10% of original wound area
[15] = Scarring not obvious visually or by touch

With `CC=C(C)C(=O)OC1C(C)C2(O)C(C3OC3(CO)C(O)C3(O)C(=O)C(C)=CC32)C2C(C)(C)C12OC(=O)C(C)CC` (stereo not drawn) [Compound 1, 12-tigloyl-13-(2-methylbutanoyl)-6,7-epoxy-4,5,9,12,13,20-hexahydroxy-1-tigliaen-3-one] the “rate of scratch closure compared to the control treatment” value [1] was “significantly increased”, the “No. of horses: Tissue deficit at wound site, Minor” value [2, 7] was 0 and the “No. of horses: Tissue deficit at wound site, Nil or minimal” value [2, 8] was 6. The “No. of horses: Tissue deficit at wound site, Substantial” value [2, 9] was 0, the “Average days from tumour slough to wound closure” value (“Average days from tumour slough” for short) ([2]; wound size class 0.25 to 9 cm^2, 4 cases) was 20 ± 12 days and the “Average days from tumour slough” value ([2]; wound size class 9 to 50 cm^2, 2 cases) was 53 ± 22 days. For the same compound, the “No. of horses: Hair regrowth on wound area, Sparse” value [2, 10] was 0, the “No. of horses: Hair regrowth on wound area, Partial” value [2, 11] was 1 and the “No. of horses: Hair regrowth on wound area, Full” value [2, 12] was 5. The “No. of horses: Scarring & skin thickening, Minor” value [2, 13] was 1, the “No. of horses: Scarring & skin thickening, Substantial” value [2, 14] was 1 and the “No. of horses: Scarring & skin thickening, Nil or minimal” value [2, 15] was 4. For the same compound, the “No. of horses: Change in hair colour, No” value ([2]; healed wound site) was 3, the “No. of horses: Change in hair colour, Yes” value ([2]; healed wound site) was 3 and the “No. of horses: Skin pigmentation, Hyperpigmentation” value ([2]; healed wound site) was 1. For the same compound, the “No. of horses: Skin pigmentation, Hypopigmentation” value ([2]; healed wound site) was 1, the “No. of horses: Skin pigmentation, Normal” value ([2]; healed wound site) was 3 and the “No. of horses: Skin pigmentation, Patchy” value ([2]; healed wound site) was 1. The wound resolution [3] was “effective wound resolution with minimal scarring”, the “Differentiation endpoint (endpoint concentration in dilution series for induction of macrophage phenotype)” value [4] was 1 ng/mL and the “No. of cats: Tissue deficit at wound site, Minor” value [5, 7] was 0. For the same compound, the “No. of cats: Tissue deficit at wound site, Nil or minimal” value [5, 8] was 3, the “No. of cats: Tissue deficit at wound site, Substantial” value [5, 9] was 0 and the “Average days from tumour slough” value ([5]; Feline, wound size class 0.25 to 12 cm^2, 3 cases) was 17 ± 10 days. For the same compound, the “No. of cats: Hair regrowth on wound area, Sparse” value [5, 10] was 0, the “No. of cats: Hair regrowth on wound area, Partial” value [5, 11] was 1 and the “No. of cats: Hair regrowth on wound area, Full” value [5, 12] was 2. The “No. of cats: Scarring & skin thickening, Minor” value [5, 13] was 0, the “No. of cats: Scarring & skin thickening, Substantial” value [5, 14] was 0 and the “No. of cats: Scarring & skin thickening, Nil or minimal” value [5, 15] was 3. For the same compound, the “No. of cats: Change in hair colour, No” value ([5]; healed wound site) was 2, the “No. of cats: Change in hair colour, Yes” value ([5]; healed wound site) was 1 and the “No. of cats: Skin pigmentation, Hyperpigmentation” value ([5]; healed wound site) was 0. The “No. of cats: Skin pigmentation, Hypopigmentation” value ([5]; healed wound site) was 0, the “No. of cats: Skin pigmentation, Normal” value ([5]; healed wound site) was 3 and the “No. of cats: Skin pigmentation, Patchy” value ([5]; healed wound site) was 0. For the same compound, the “% closure compared to control” value ([6]; 30 ng/mL) was 166%, the “% closure compared to control” value ([6]; 100 ng/mL) was 146% and the “staining pattern / growth of fibroblasts under the microscope” value ([6]; 24 hours post scratch) was “growing in a multilayered fashion”.
In the case of `CCC(C)C(=O)OC1C(C)C2(O)C(C3OC3(CO)C(O)C3(O)C(=O)C(C)=CC32)C2C(C)(C)C12OC(=O)C(C)CC` (stereo not drawn) [Compound 2, 12,13-di-(2-methylbutanoyl)-6,7-epoxy-4,5,9,12,13,20-hexahydroxy-1-tigliaen-3-one], the “Differentiation endpoint (endpoint concentration in dilution series for induction of macrophage phenotype)” value [4] is reported as 1 ng/mL, the “% closure compared to control” value ([6]; 30 ng/mL) is reported as 130% and the “% closure compared to control” value ([6]; 100 ng/mL) is reported as 129%.

Reference: patent US10822317B2, “Methods and compositions for wound healing” (QBiotics Limited, priority 2013, dated 2020)
